Measured values as given in patent publication US7008944B2, “Antidepressant azaheterocyclylmethyl derivatives of 2,3-dihydro-1,4-Dioxino[2,3-f]quinoxaline” (Wyeth, priority 2001, dated 2006).
Like-named read-outs stand apart in the source and are kept apart here.

Experiments:
human 5-HT1A receptors = target: T1, human 5-HT1A receptors (Homo sapiens, UniProt P08908); assay: [3H] 8-OHDPAT displacement, 5-HT1A receptor affinity; format: binding
T1 construct: expressed in transfected cells; host or cells: CHO cells
T1 sequence (P08908 1-422): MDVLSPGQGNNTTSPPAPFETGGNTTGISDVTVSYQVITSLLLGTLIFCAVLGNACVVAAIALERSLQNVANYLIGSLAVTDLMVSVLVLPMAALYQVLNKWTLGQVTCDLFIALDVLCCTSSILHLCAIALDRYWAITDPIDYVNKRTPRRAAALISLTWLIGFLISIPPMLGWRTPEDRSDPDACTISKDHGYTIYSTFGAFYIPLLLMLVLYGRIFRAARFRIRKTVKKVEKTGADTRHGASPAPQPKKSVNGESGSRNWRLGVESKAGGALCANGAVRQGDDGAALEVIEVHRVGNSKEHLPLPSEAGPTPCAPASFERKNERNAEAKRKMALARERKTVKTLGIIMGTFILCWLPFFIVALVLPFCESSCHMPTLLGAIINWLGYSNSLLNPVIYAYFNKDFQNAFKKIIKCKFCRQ
Excerpt: High affinity for the serotonin 5-HT1A receptor was established by testing the claimed compound's ability to displace [^3H] 8-OHDPAT (dipropylamino-tetralin) from the 5-HT1A serotonin receptor following a modification of the procedure of Hall et al., J. Neurochem. 44, 1685 (1985) which utilizes CHO cells stably transfected with human 5-HT1A receptors.

[1] = target: T2, cloned human 5-HT1A receptors (Homo sapiens, UniProt P08908); assay: 35S-GTPγS binding assay, 5-HT1A antagonist activity; format: biochemical; conditions: reversal of the effects of standard agonist 8-OH DPAT; for IC50: read-out: 5-HT1A Function IC50
T2 construct: expressed in transfected cells
T2 sequence (P08908 1-422): T1 sequence (P08908 1-422)
Procedure: Antagonist activity at 5-HT1A receptors was established by using a ^35S-GTPγS binding assay similar to that used by Lazareno and Birdsall (Br. J. Pharmacol. 109: 1120, 1993), in which the test compound's ability to affect the binding of ^35S-GTPγS to membranes containing cloned human 5-HT1A receptors was determined. Agonists produce an increase in binding whereas antagonists produce no increase but rather reverse the effects of the standard agonist 8-OH DPAT. The test compound's maximum inhibitory effect is represented as the Imax, while its potency is defined by the IC50.

serotonin transporter = target: T3, serotonin transporter (Rattus norvegicus, UniProt P31652); assay: 3H-paroxetine displacement, serotonin transporter affinity; format: binding
T3 construct: displace ^3H-paroxetine from male rat frontal cortical membranes; from tissue; host or cells: male rat frontal cortex membranes
T3 sequence (P31652 whole entry): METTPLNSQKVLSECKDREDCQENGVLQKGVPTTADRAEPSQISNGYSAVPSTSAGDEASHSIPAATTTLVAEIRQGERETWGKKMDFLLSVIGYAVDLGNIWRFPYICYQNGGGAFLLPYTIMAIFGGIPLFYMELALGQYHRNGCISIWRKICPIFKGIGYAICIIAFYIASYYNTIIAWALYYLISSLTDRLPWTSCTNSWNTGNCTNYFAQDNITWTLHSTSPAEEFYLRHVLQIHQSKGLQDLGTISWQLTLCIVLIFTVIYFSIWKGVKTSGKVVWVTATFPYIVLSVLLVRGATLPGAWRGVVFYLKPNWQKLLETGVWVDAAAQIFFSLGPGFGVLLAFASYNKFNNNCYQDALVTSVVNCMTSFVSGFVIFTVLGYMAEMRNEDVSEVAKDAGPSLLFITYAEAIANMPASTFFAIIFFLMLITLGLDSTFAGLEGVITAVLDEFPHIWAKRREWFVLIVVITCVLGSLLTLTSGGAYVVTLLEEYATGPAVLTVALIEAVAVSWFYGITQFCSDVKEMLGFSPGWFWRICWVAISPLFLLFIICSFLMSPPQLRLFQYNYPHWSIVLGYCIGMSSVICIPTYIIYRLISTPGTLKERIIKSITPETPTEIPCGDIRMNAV

Row | Compound | Ki (human 5-HT1A receptors) [nM] | melting point | 5-HT1A Function Imax (maximum inhibitory effect) [1] [%] | IC50 [1] [nM] | Ki (serotonin transporter) [nM] | Ki (human 5-HT1A receptors; displacement of [3H] 8-OHDPAT, CHO cells stably transfected with human 5-HT1A receptors, read-out: 5-HT1A Receptor Affinity KI) [nM] | Ki (serotonin transporter; displacement of 3H-paroxetine from male rat frontal cortical membranes, read-out: 5-HT Transporter Affinity KI) [nM]
1 | C1=C(c2c[nH]c3ccccc23)CCN(CC2COc3ccc4nccnc4c3O2)C1 (stereo not drawn) [Example 2, 2-{[4-(1H-Indol-3-yl)-3,6-dihydro-1(2H)-pyridinyl]methyl}-2,3-dihydro[1,4]dioxino[2,3-f]quinoxaline] | 30 | > 220 °C (dec.) | 100 | 203 | 2.86 |  | 
2 | Cc1nc2ccc3c(c2nc1C)OC(CN1CC=C(c2c[nH]c4ccc(F)cc24)CC1)CO3 (stereo not drawn) [Example 4, 2-{[4-(5-Fluoro-1H-indol-3-yl)-3,6-dihydro-1(2H)-pyridinyl]methyl}-8,9-dimethyl-2,3-dihydro[1,4]dioxino[2,3-f]quinoxaline] | 25.5 | 138 to 141 °C | 100 | 389 | 1.57 |  | 
3 | Fc1ccc2[nH]cc(C3=CCN(CC4COc5ccc6nccnc6c5O4)CC3)c2c1 (stereo not drawn) [Example 1, 2-{[4-(5-Fluoro-1H-indol-3-yl)-3,6-dihydro-1(2H)-pyridinyl]methyl}-2,3-dihydro[1,4]dioxino[2,3-f]quinoxaline] | 17.7 | > 200 °C (dec.) | 100 | 271 | 0.5 |  | 
4 | CCc1nc2ccc3c(c2nc1CC)OC(CN1CC=C(c2c[nH]c4ccc(F)cc24)CC1)CO3 (stereo not drawn) [Example 6, 8,9-Diethyl-2-{[4-(5-fluoro-1H-indol-3-yl)-3,6-dihydro-1(2H)-pyridinyl]methyl}-2,3-dihydro[1,4]dioxino[2,3-f]quinoxaline] |  | > 120 °C (dec.) | 100 | 2240 |  | 264 | 14
5 | CCc1nc2ccc3c(c2nc1CC)OC(CN1CC=C(c2c[nH]c4ccccc24)CC1)CO3 (stereo not drawn) [Example 5, 8,9-Diethyl-2-{[4-(1H-indol-3-yl)-3,6-dihydro-1(2H)-pyridinyl]methyl}-2,3-dihydro[1,4]dioxino[2,3-f]quinoxaline] | 99.2 | > 120 °C (dec.) | 98 | 1860 | 9.5 |  | 
6 | Cc1nc2ccc3c(c2nc1C)O[C@@H](CN1CC=C(c2c[nH]c4ccccc24)CC1)CO3 [Example 3] | 15.3 | 153 to 155 °C | 100 | 332 | 1.19 |  | 
